What was measured:
ScN2a cells = conditions: mouse
PrP^Sc in ScN2a cells = type: cell-based, mouse
total PrP in ScN2a cells = type: cell-based, mouse
PrP^Sc formation = conditions: cited from earlier work
L2-2B1 cells = conditions: mouse

Compound: CCN(CC)CCCC(C)Nc1c2ccc(Cl)cc2nc2ccc(OC)cc12 (centres unmarked) [Quinacrine]
- concentration causing cytotoxicity (ScN2a cells): above 2 μM
- PrP^Sc level (PrP^Sc in ScN2a cells): completely inhibited
- total PrP level (total PrP in ScN2a cells): unaffected
- optimal concentration found to inhibit PrP^Sc formation (PrP^Sc formation): below 4 μM
- concentration causing cytotoxicity (L2-2B1 cells): above 2 μM
